Reference: ChEMBL document CHEMBL2010711, “Synthesis and comparative evaluation of 4-oxa- and 4-aza-podophyllotoxins as antiproliferative microtubule destabilizing agents” (Bioorg Med Chem Lett, 2012)
Activity calls are given as the source filed them.

What was measured:
[1] = system: 786-0; assay: Cytotoxicity against human 786-0 cells after 48 hrs by trypan blue dye exclusion assay; type: functional; conditions: 786-0, 48 h
[2] = system: MCF7; assay: Cytotoxicity against human MCF7 cells after 48 hrs by trypan blue dye exclusion assay; type: functional; conditions: MCF7, 48 h
[3] = system: HT-29; assay: Cytotoxicity against human HT-29 cells after 48 hrs by trypan blue dye exclusion assay; type: functional; conditions: HT-29, 48 h
[4] = system: IGROV-1; assay: Cytotoxicity against human IGROV1 cells after 48 hrs by trypan blue dye exclusion assay; type: functional; conditions: IGROV-1, 48 h
[5] = system: Paracentrotus lividus; assay: Antimitotic activity against Paracentrotus lividus embryo assessed as cleavage alteration at 2 fold less effective threshold concentration after 2.5 to 6 hrs; type: functional, organism-based
[6] = system: SK-MEL-5; assay: Cytotoxicity against human SK-MEL-5 cells after 48 hrs by trypan blue dye exclusion assay; type: functional; conditions: SK-MEL-5, 48 h
[7] = Cytotoxicity against human Hs 578T cells after 48 hrs by trypan blue dye exclusion assay; type: functional
[8] = system: Paracentrotus lividus; assay: Antimitotic activity against Paracentrotus lividus embryo assessed as concentration required to cause 100% cleavage arrest after 2.5 to 6 hrs; type: functional
[9] = system: MOLT-4; assay: Cytotoxicity against human MOLT4 cells after 48 hrs by trypan blue dye exclusion assay; type: functional; conditions: MOLT-4, 48 h
[10] = system: RXF 393; assay: Cytotoxicity against human RXF393 cells after 48 hrs by trypan blue dye exclusion assay; type: functional; conditions: RXF 393, 48 h
[11] = system: SK-OV-3; assay: Cytotoxicity against human SKOV3 cells after 48 hrs by trypan blue dye exclusion assay; type: functional; conditions: SK-OV-3, 48 h
[12] = system: CAKI-1; assay: Cytotoxicity against human CAKI-1 cells after 48 hrs by trypan blue dye exclusion assay; type: functional; conditions: CAKI-1, 48 h
[13] = system: SF-268; assay: Cytotoxicity against human SF268 cells after 48 hrs by trypan blue dye exclusion assay; type: functional; conditions: SF-268, 48 h
[14] = system: CCRF-CEM; assay: Cytotoxicity against human CCRF-CEM cells after 48 hrs by trypan blue dye exclusion assay; type: functional
[15] = system: Paracentrotus lividus; assay: Antimitotic activity against Paracentrotus lividus embryo assessed as concentration required to cause 100% cleavage alteration after 2.5 to 6 hrs; type: functional
[16] = system: NCI-H226; assay: Cytotoxicity against human NCI-H226 cells after 48 hrs by trypan blue dye exclusion assay; type: functional; conditions: NCI-H226, 48 h
[17] = system: OVCAR-4; assay: Cytotoxicity against human OVCAR4 cells after 48 hrs by trypan blue dye exclusion assay; type: functional; conditions: OVCAR-4, 48 h
[18] = system: MDA-MB-468; assay: Cytotoxicity against human MDA-MB-468 cells after 48 hrs by trypan blue dye exclusion assay; type: functional; conditions: MDA-MB-468, 48 h
[19] = system: SF-539; assay: Cytotoxicity against human SF539 cells after 48 hrs by trypan blue dye exclusion assay; type: functional; conditions: SF-539, 48 h
[20] = system: M14; assay: Cytotoxicity against human M14 cells after 48 hrs by trypan blue dye exclusion assay; type: functional; conditions: M14, 48 h
[21] = system: NCI-H460; assay: Cytotoxicity against human NCI-H460 cells after 48 hrs by trypan blue dye exclusion assay; type: functional; conditions: NCI-H460, 48 h
[22] = system: Paracentrotus lividus; assay: Microtubule destabilizing activity in Paracentrotus lividus embryo assessed as embryo spinning at 2 fold less effective threshold concentration after 15 mins to 20 hrs; type: functional, organism-based
[23] = system: SNB-75; assay: Cytotoxicity against human SNB75 cells after 48 hrs by trypan blue dye exclusion assay; type: functional; conditions: SNB-75, 48 h
[24] = system: HOP-92; assay: Cytotoxicity against human HOP92 cells after 48 hrs by trypan blue dye exclusion assay; type: functional; conditions: HOP-92, 48 h
[25] = system: OVCAR-3; assay: Cytotoxicity against human OVCAR3 cells after 48 hrs by trypan blue dye exclusion assay; type: functional; conditions: OVCAR-3, 48 h
[26] = system: COLO 205; assay: Cytotoxicity against human COLO205 cells after 48 hrs by trypan blue dye exclusion assay; type: functional; conditions: COLO 205, 48 h
[27] = system: MDA-MB-231; assay: Cytotoxicity against human MDA-MB-231 cells after 48 hrs by trypan blue dye exclusion assay; type: functional; conditions: MDA-MB-231, 48 h
[28] = system: SK-MEL-28; assay: Cytotoxicity against human SK-MEL-28 cells after 48 hrs by trypan blue dye exclusion assay; type: functional; conditions: SK-MEL-28, 48 h
[29] = system: Paracentrotus lividus; assay: Antimitotic activity against Paracentrotus lividus embryo assessed as cleavage arrest at 2 fold less effective threshold concentration after 2.5 to 6 hrs; type: functional, organism-based
[30] = system: PC-3; assay: Cytotoxicity against human PC3 cells after 48 hrs by trypan blue dye exclusion assay; type: functional; conditions: PC-3, 48 h
[31] = system: HCC 2998; assay: Cytotoxicity against human HCC2998 cells after 48 hrs by trypan blue dye exclusion assay; type: functional; conditions: HCC 2998, 48 h
[32] = system: LOX IMVI; assay: Cytotoxicity against human LOXIMVI cells after 48 hrs by trypan blue dye exclusion assay; type: functional
[33] = system: SK-MEL-2; assay: Cytotoxicity against human SK-MEL-2 cells after 48 hrs by trypan blue dye exclusion assay; type: functional; conditions: SK-MEL-2, 48 h
[34] = system: EKVX; assay: Cytotoxicity against human EKVX cells after 48 hrs by trypan blue dye exclusion assay; type: functional
[35] = system: HL-60(TB); assay: Cytotoxicity against human HL-60(TB) cells after 48 hrs by trypan blue dye exclusion assay; type: functional; conditions: HL-60, 48 h
[36] = system: RPMI-8226; assay: Cytotoxicity against human RPMI8226 cells after 48 hrs by trypan blue dye exclusion assay; type: functional; conditions: RPMI-8226, 48 h
[37] = system: A549; assay: Cytotoxicity against human A549 cells after 48 hrs by trypan blue dye exclusion assay; type: functional; conditions: A549, 48 h
[38] = system: OVCAR-8; assay: Cytotoxicity against human OVCAR8 cells after 48 hrs by trypan blue dye exclusion assay; type: functional; conditions: OVCAR-8, 48 h
[39] = system: TK-10; assay: Cytotoxicity against human TK10 cells after 48 hrs by trypan blue dye exclusion assay; type: functional; conditions: TK-10, 48 h
[40] = system: SF-295; assay: Cytotoxicity against human SF295 cells after 48 hrs by trypan blue dye exclusion assay; type: functional; conditions: SF-295, 48 h
[41] = system: SNB-19; assay: Cytotoxicity against human SNB19 cells after 48 hrs by trypan blue dye exclusion assay; type: functional; conditions: SNB-19, 48 h
[42] = system: KM12; assay: Cytotoxicity against human KM12 cells after 48 hrs by trypan blue dye exclusion assay; type: functional; conditions: KM12, 48 h
[43] = system: UACC-62; assay: Cytotoxicity against human UACC62 cells after 48 hrs by trypan blue dye exclusion assay; type: functional; conditions: UACC-62, 48 h
[44] = system: HCT-15; assay: Cytotoxicity against human HCT15 cells after 48 hrs by trypan blue dye exclusion assay; type: functional; conditions: HCT-15, 48 h
[45] = system: BT-549; assay: Cytotoxicity against human BT549 cells after 48 hrs by trypan blue dye exclusion assay; type: functional; conditions: BT-549, 48 h
[46] = system: DU-145; assay: Cytotoxicity against human DU145 cells after 48 hrs by trypan blue dye exclusion assay; type: functional; conditions: DU-145, 48 h
[47] = system: OVCAR-5; assay: Cytotoxicity against human OVCAR5 cells after 48 hrs by trypan blue dye exclusion assay; type: functional; conditions: OVCAR-5, 48 h
[48] = system: SW-620; assay: Cytotoxicity against human SW620 cells after 48 hrs by trypan blue dye exclusion assay; type: functional; conditions: SW-620, 48 h
[49] = system: Paracentrotus lividus; assay: Microtubule destabilizing activity in Paracentrotus lividus embryo assessed as concentration required to cause 100% embryo spinning after 15 mins to 20 hrs; type: functional
[50] = system: MDA-MB-435; assay: Cytotoxicity against human MDA-MB-435 cells after 48 hrs by trypan blue dye exclusion assay; type: functional; conditions: MDA-MB-435, 48 h
[51] = system: UO-31; assay: Cytotoxicity against human UO31 cells after 48 hrs by trypan blue dye exclusion assay; type: functional; conditions: UO-31, 48 h
[52] = system: ACHN; assay: Cytotoxicity against human ACHN cells after 48 hrs by trypan blue dye exclusion assay; type: functional
[53] = system: NCI/ADR-RES; assay: Cytotoxicity against human NCI/ADR-RES cells after 48 hrs by trypan blue dye exclusion assay; type: functional
[54] = system: A498; assay: Cytotoxicity against human A498 cells after 48 hrs by trypan blue dye exclusion assay; type: functional; conditions: A498, 48 h
[55] = system: NCI-H522; assay: Cytotoxicity against human NCI-H522 cells after 48 hrs by trypan blue dye exclusion assay; type: functional; conditions: NCI-H522, 48 h
[56] = system: SR; assay: Cytotoxicity against human SR cells after 48 hrs by trypan blue dye exclusion assay; type: functional
[57] = system: NCI-H322M; assay: Cytotoxicity against human NCI-H322M cells after 48 hrs by trypan blue dye exclusion assay; type: functional
[58] = system: U-251; assay: Cytotoxicity against human U251 cells after 48 hrs by trypan blue dye exclusion assay; type: functional; conditions: U-251, 48 h
[59] = system: SN12C; assay: Cytotoxicity against human SN12C cells after 48 hrs by trypan blue dye exclusion assay; type: functional
[60] = system: NCI-H23; assay: Cytotoxicity against human NCI-H23 cells after 48 hrs by trypan blue dye exclusion assay; type: functional; conditions: NCI-H23, 48 h
[61] = system: HCT-116; assay: Cytotoxicity against human HCT116 cells after 48 hrs by trypan blue dye exclusion assay; type: functional; conditions: HCT-116, 48 h

## COc1ccc2c(c1)OC1=C(C(=O)OC1)C2c1cc(OC)c2c(c1)OCCO2 (stereo unspecified)
[1]
  GI50: 61.4 nM
[2]
  GI50: 32.9 nM
[3]
  GI50: 38.4 nM
[4]
  GI50: 86 nM
[5]
  Activity: inactive
[6]
  GI50: 32.9 nM
[7]
  GI50: 30.8 nM
[8]
  EC: 50 nM
[9]
  GI50: 81.7 nM
[10]
  GI50: 18.7 nM
[11]
  GI50: 33.3 nM
[12]
  GI50: 36.3 nM
[13]
  GI50: 85.1 nM
[14]
  GI50: 31.3 nM
[15]
  EC: 10 nM
[16]
  GI50: 71.2 nM
[17]
  GI50: 236 nM
[18]
  GI50: 23.1 nM
[19]
  GI50: 29.3 nM
[20]
  GI50: 52.2 nM
[21]
  GI50: > 100000 nM
[22]
  Activity: inactive
[23]
  GI50: 33.7 nM
[24]
  GI50: 41.6 nM
[25]
  GI50: 26.2 nM
[26]
  GI50: 30.7 nM
[27]
  GI50: 110 nM
[28]
  GI50: 51.7 nM
[29]
  Activity: inactive
[30]
  GI50: 46.9 nM
[31]
  GI50: 75.7 nM
[32]
  GI50: 48.5 nM
[33]
  GI50: 48.3 nM
[34]
  GI50: 68.2 nM
[35]
  GI50: 23.2 nM
[36]
  GI50: 41 nM
[37]
  GI50: 52.3 nM
[38]
  GI50: 49.5 nM
[39]
  GI50: 36500 nM
[40]
  GI50: 31.5 nM
[41]
  GI50: 50.4 nM
[42]
  GI50: 42.7 nM
[43]
  GI50: 39.2 nM
[44]
  GI50: 47.5 nM
[45]
  GI50: 131 nM
[46]
  GI50: 51.9 nM
[47]
  GI50: 126 nM
[48]
  GI50: 36.2 nM
[49]
  EC: 500 nM
[50]
  GI50: 19.7 nM
[51]
  GI50: 71.3 nM
[52]
  GI50: 171 nM
[53]
  GI50: 23.5 nM
[54]
  GI50: 23.1 nM
[55]
  GI50: 37.3 nM
[56]
  GI50: 32.8 nM
[57]
  GI50: 47.4 nM
[58]
  GI50: 85.1 nM
[59]
  GI50: 54 nM
[60]
  GI50: 38.2 nM
[61]
  GI50: 48.3 nM
